This note sets out measurements from ChEMBL document CHEMBL5465560, “Selectivity Literature for EUbOPEN Chemogenomic Library” (2024).

As a reminder, the IC50 is the concentration that gives 50% inhibition.

The target of assay [1] is Mitogen-activated protein kinase 14 (Homo sapiens, UniProt Q16539). Briefly: Selectivity interaction (Kinase panel (Z-LYTE Assay)) EUB0001632a MAPK14. The note with it: at 10 µM.
Assay [2] deals with T1, Serine/threonine-protein kinase D1 (Homo sapiens) (UniProt Q15139).
T1 sequence (whole entry): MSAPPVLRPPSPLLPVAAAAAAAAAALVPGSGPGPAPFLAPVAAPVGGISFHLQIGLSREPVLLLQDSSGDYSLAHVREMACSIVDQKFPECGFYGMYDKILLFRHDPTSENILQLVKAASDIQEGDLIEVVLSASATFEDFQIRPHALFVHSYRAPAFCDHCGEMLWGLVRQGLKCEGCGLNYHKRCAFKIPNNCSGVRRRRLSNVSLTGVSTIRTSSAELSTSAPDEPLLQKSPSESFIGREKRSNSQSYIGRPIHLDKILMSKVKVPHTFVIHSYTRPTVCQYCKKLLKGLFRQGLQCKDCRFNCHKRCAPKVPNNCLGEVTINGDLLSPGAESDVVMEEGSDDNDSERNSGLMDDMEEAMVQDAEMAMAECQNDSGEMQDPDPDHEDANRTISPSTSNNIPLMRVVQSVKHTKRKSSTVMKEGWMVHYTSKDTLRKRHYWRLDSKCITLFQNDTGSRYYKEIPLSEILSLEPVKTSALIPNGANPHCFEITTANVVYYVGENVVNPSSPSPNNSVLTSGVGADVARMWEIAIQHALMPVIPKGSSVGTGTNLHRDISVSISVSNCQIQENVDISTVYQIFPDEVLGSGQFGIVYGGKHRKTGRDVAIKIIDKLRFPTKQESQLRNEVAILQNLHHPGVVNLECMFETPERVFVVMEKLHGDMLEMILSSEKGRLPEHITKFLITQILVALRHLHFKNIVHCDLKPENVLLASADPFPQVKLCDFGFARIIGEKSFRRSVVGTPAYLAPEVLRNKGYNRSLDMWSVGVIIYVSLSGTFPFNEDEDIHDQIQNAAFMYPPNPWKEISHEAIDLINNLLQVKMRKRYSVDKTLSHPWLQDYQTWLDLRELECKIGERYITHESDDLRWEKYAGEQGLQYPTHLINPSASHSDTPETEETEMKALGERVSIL
Particulars: at 10 µM.

Assay [3] deals with Tyrosine-protein kinase FRK (Homo sapiens) (UniProt P42685). Briefly: Selectivity interaction (KinomeScan (DiscoverX)) EUB0000666a FRK. Particulars: at 10 µM.
Assay [4] has as its target Cyclin-dependent kinase 16 (Homo sapiens) (UniProt Q00536). Briefly: Selectivity interaction (KinomeScan (DiscoverX)) EUB0000666a CDK16. Particulars: at 10 µM.
In assay [5] the target is T2, Serine/threonine-protein kinase LATS2 (Homo sapiens) (UniProt Q9NRM7).
T2 sequence (whole entry): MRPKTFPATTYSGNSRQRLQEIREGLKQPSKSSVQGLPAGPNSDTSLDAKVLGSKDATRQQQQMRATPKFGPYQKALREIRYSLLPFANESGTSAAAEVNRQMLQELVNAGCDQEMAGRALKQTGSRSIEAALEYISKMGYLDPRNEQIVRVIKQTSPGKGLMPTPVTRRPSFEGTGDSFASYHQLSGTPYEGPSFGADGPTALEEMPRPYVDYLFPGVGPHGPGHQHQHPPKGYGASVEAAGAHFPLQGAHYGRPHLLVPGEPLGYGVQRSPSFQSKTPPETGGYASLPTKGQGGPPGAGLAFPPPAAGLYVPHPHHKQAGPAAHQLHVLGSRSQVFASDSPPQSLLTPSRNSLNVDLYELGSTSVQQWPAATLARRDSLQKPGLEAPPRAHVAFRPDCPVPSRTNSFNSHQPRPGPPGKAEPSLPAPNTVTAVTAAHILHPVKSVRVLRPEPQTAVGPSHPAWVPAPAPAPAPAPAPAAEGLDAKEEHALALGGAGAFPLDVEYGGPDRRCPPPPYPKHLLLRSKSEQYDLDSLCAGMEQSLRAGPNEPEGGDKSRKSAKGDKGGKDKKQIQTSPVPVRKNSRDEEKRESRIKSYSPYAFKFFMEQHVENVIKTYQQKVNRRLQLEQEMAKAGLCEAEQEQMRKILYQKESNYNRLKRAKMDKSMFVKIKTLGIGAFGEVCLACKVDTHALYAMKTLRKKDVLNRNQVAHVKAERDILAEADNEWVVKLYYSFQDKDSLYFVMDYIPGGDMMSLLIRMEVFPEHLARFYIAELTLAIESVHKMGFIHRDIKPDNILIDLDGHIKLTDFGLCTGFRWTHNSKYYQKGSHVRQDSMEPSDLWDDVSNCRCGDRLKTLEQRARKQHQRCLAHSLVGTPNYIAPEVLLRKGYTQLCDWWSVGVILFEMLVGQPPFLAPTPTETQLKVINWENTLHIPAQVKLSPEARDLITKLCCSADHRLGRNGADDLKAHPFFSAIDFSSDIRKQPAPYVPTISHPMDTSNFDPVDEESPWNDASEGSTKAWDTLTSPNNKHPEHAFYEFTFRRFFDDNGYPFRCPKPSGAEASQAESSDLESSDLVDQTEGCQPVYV
Briefly: Selectivity interaction (KinomeScan (DiscoverX)) EUB0000607a LATS2. The note with it: at 10 µM.

In assay [6] the target is Mitogen-activated protein kinase kinase kinase 11 (Homo sapiens) (UniProt Q16584). Put plainly: Selectivity interaction (ActivX KiNativ screen (kinase selectivity in THP-1 cell lysates)) EUB0000639a MAP3K11. The note with it: lysate, at 0.2 µM. The format is subcellular.
In assay [7] the target is Serine/threonine-protein kinase RIO2 (Homo sapiens) (UniProt Q9BVS4). Briefly: Selectivity interaction (KinomeScan (DiscoverX)) EUB0000045b RIOK2.
Assay [8] deals with Sodium-dependent noradrenaline transporter (Homo sapiens, UniProt P23975). Briefly: Selectivity interaction (Norepinephrine Transporter assay, human recombinant ) EUB0000877a SLC6A2.
Assay [9] has as its system Epidermal growth factor receptor (Homo sapiens), P00533 [UNDEFINED MUTATION]. Put plainly: Selectivity interaction (KinomeScan (DiscoverX)) EUB0000618a EGFR. The note with it: at 10 µM.
For assay [10], the target named is Dual specificity mitogen-activated protein kinase kinase 1 (Homo sapiens, UniProt Q02750). Put plainly: Selectivity interaction (Kinase panel (KiNativ target engagement assay in Jurkat cells)) EUB0001635a MAP2K1. The format is cell-based. The note with it: Selectivity number of off-targets 0.0, Selectivity number of targets 233.0, Source Knowledge https://www.sciencedirect.com/science/article/pii/S2451945619300674?via%3Dihub, at 1 µM.
Dual specificity mitogen-activated protein kinase kinase 1, sequence (Q02750 whole entry): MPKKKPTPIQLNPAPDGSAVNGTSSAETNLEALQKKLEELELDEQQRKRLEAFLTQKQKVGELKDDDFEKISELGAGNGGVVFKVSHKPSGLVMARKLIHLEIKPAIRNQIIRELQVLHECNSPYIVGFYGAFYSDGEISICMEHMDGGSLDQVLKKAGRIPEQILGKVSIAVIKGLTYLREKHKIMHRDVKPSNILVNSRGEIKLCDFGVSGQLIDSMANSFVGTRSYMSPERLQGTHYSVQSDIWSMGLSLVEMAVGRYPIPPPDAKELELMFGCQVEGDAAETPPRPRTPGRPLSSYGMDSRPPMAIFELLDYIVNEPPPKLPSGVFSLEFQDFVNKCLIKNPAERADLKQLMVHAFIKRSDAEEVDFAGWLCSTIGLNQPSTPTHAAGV

Serine/threonine-protein kinase RIO2 (Homo sapiens), sequence (Q9BVS4 whole entry, looked up): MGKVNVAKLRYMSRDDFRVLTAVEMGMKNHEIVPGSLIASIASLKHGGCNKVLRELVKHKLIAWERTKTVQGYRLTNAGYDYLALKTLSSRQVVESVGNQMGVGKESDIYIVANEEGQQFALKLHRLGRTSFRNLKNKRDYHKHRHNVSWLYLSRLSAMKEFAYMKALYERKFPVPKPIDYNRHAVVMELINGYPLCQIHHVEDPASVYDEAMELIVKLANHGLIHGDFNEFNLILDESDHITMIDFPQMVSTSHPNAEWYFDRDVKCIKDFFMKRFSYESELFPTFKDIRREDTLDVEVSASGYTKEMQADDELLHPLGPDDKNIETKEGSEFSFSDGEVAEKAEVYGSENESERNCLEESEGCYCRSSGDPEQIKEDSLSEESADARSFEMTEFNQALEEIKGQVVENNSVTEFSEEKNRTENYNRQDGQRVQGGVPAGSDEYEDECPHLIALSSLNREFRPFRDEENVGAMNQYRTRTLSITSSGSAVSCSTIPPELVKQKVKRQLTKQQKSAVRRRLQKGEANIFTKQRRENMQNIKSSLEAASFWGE
Mitogen-activated protein kinase kinase kinase 11 (Homo sapiens), sequence (Q16584 whole entry, looked up): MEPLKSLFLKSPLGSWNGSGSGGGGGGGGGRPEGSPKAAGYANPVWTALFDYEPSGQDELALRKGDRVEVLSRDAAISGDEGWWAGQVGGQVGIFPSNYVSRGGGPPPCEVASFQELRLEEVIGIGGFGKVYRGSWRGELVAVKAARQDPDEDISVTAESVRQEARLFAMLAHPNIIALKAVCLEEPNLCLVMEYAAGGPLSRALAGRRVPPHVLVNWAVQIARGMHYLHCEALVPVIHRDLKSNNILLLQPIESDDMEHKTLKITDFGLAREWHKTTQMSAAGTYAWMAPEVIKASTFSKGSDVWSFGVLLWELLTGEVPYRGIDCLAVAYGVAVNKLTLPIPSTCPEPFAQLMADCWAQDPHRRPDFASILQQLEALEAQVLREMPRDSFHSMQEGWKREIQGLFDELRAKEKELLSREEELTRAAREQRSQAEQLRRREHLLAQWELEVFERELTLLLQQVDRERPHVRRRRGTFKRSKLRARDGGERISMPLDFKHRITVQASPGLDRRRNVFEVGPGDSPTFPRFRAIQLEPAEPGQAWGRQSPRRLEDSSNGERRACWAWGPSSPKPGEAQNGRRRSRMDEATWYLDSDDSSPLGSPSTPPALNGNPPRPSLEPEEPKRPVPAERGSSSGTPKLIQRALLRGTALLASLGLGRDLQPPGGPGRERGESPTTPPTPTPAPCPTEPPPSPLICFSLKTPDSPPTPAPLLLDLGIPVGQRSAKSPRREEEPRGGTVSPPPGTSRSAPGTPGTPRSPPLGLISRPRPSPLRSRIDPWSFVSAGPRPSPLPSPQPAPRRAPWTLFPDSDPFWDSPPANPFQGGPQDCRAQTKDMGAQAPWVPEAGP
Epidermal growth factor receptor (Homo sapiens), P00533 [UNDEFINED MUTATION], sequence (P00533 whole entry, looked up, change not shown): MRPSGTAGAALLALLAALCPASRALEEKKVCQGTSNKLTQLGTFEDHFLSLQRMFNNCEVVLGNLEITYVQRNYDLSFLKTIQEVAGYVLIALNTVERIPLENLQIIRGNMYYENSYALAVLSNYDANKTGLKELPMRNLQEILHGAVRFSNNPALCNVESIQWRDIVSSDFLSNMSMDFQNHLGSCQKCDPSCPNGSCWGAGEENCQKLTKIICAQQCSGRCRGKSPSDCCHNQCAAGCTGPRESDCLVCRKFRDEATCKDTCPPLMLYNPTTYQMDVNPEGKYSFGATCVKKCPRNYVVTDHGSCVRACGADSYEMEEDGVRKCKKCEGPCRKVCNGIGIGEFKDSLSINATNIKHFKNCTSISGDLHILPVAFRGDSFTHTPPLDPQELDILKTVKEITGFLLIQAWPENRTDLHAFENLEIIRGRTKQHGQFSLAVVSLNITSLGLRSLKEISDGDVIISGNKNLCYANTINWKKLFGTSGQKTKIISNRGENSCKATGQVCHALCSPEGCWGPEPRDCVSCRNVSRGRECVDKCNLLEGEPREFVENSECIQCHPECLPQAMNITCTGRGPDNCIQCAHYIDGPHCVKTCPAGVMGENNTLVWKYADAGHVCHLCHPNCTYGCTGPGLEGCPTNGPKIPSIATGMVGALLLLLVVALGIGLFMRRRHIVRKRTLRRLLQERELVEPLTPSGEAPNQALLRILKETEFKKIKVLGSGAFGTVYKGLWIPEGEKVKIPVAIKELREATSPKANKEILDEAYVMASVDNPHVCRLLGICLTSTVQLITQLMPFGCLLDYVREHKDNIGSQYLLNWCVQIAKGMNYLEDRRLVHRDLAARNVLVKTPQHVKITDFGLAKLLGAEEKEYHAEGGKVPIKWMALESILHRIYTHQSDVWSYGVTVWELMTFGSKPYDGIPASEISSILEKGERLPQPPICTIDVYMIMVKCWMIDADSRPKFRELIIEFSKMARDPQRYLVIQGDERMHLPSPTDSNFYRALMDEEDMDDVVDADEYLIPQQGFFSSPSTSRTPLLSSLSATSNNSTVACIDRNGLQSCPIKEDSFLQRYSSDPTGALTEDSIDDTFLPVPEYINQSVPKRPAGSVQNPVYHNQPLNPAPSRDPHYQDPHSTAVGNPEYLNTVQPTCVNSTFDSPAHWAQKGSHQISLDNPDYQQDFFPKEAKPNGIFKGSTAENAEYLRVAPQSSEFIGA
Tyrosine-protein kinase FRK (Homo sapiens), sequence (P42685 whole entry): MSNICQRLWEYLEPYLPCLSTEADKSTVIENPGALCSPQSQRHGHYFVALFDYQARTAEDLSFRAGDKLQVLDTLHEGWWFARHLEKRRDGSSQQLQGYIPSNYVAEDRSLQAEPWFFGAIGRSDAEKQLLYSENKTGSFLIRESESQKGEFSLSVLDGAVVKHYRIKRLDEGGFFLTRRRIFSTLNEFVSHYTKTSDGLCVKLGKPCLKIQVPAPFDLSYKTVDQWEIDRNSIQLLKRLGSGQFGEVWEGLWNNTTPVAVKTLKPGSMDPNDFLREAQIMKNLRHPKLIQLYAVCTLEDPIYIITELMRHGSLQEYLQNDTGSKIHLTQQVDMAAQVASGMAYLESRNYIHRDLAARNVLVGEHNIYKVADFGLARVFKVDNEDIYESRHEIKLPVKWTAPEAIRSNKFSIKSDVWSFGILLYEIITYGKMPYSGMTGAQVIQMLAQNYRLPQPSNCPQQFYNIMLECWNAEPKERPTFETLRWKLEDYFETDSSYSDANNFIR
Mitogen-activated protein kinase 14, sequence (Q16539 whole entry): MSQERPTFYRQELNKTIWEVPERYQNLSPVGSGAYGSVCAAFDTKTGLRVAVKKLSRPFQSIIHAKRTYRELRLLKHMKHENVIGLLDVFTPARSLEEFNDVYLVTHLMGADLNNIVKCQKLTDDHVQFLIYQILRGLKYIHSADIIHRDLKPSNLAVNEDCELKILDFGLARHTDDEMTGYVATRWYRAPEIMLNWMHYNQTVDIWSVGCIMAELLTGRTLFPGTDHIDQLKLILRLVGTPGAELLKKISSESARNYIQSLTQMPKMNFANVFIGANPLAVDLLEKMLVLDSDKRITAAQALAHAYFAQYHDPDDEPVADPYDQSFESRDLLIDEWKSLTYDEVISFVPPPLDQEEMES
Sodium-dependent noradrenaline transporter, sequence (P23975 whole entry): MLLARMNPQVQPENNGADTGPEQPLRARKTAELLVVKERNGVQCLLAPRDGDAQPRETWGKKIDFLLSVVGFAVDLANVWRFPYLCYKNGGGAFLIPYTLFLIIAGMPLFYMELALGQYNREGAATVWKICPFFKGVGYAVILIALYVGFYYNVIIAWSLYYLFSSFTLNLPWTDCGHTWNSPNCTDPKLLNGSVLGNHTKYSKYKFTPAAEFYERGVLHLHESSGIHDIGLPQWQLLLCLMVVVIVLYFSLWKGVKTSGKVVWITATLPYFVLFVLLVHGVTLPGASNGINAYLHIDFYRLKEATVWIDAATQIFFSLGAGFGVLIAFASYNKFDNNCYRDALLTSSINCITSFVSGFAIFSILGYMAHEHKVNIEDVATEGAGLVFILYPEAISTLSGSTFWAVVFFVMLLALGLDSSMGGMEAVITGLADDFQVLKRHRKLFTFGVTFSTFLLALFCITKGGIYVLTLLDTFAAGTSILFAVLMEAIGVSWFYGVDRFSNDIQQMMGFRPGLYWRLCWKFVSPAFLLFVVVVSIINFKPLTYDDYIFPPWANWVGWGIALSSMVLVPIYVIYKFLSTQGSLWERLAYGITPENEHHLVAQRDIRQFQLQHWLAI
Cyclin-dependent kinase 16 (Homo sapiens), sequence (Q00536 whole entry): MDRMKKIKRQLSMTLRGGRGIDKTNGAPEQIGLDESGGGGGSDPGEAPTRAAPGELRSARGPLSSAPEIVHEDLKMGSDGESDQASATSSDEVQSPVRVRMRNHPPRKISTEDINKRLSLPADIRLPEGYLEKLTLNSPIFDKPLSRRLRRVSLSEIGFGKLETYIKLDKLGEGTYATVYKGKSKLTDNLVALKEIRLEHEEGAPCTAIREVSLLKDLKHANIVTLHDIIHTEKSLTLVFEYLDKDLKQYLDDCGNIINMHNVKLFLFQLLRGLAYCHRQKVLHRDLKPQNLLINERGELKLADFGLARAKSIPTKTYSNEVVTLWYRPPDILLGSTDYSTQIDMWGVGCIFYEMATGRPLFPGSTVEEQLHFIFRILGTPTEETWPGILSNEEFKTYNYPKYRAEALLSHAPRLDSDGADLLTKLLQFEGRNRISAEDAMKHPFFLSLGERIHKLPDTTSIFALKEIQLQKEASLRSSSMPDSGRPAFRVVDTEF

Turning to `Cn1cc(-n2cnc3c(NCc4nc5cc(Cl)c(Cl)cc5[nH]4)nc(N4CCOCC4)nc32)cn1`, the % of control in assay [1] was -2.35%.
`COCC(=O)NC/C=C/c1ccc2ncnc(Nc3ccc(Oc4ccc(C)nc4)c(C)c3)c2c1` [CP-724714]: in assay [2], the % of control came out at 85%.
As for `O=C(NOC[C@H](O)CO)c1ccc(F)c(F)c1Nc1ccc(I)cc1F`, the % of control in assay [3] turned out to be 60%; in assay [4], 100%.
For `CNC(=O)Nc1ccc(-c2nc(N3CC4CCC(C3)O4)c3cnn(C4CCC5(CC4)OCCO5)c3n2)cc1`, the % of control in assay [5] turned out to be 76%.
For `CC[C@@H]1[C@H](F)C(=O)N[C@@H]1COc1nccc2cc(C(N)=O)c(OC)cc12` [ZIMLOVISERTIB], the % of inhibition in [6] was -15.6%.
As for `C=CC(=O)Nc1cc(-n2c(=O)ccc3cnc4ccc(-c5ccc(NS(C)(=O)=O)cc5)cc4c32)ccc1C`, the % of control in assay [7] (at 1 µM) was determined as 66%; in assay [7] (at 10 µM), 43%.
As to `CCC(=O)N1CC[C@H](Nc2ncnc3c2CN(c2cnc(OC)c(C(F)(F)F)c2)CC3)C1` [LENIOLISIB], the IC50 in assay [8] was greater than 30 µM.
On to `O[C@H]1CC[C@H](Nc2ncc3nc(Nc4c(F)cc(F)cc4F)n([C@H]4CCOC4)c3n2)CC1`, for which, in assay [9], the % of control stood at 5.7%.
On to `C=CC(=O)Nc1ccc(C(=O)Nc2[nH]nc3c2CN(C(=O)N[C@H](CN(C)C)c2ccccc2)C3(C)C)cc1`, for which, in assay [10], the % of engagement was determined as 4.8%.
